Reference: US11458106B2, “Lipid nanoparticles comprising lipophilic anti-inflammatory agents and methods of use thereof” (ASTRAZENECA AB, priority 2016, dated 2022)

Legend:
[1] = system: mice (female, Crl:Cd1(ICR)); assay: Edema scoring at injection area after subcutaneous administration; type: in vivo
Protocol: (§1) Different groups of 5 mice (female, age˜12 weeks, Crl:Cd1(ICR), Charles River) were administered with PBS (negative control) or mRNA 1 formulated in lipid nanoparticles. Prior to administration, the mice were lightly anaesthetized with Isoflurane 5% and the injection area was shaved. The formulations were then injected subcutaneously (5 ml/kg or 0.3 mg mRNA/kg) in the intrascapular region to different groups of mice. Post-dose blood samples were collected and plasma was prepared by centrifugation. Aliquots of plasma were transferred into cryo tubes (0.5 ml U-shaped polypropylene cryotubes (Sarstedt Microtube with cap Ref #72.730) and stored frozen until quantification of haptoglobin, cytokines/chemokines and mRNA 1 protein concentrations. In some studies, quantification was also carried out of lipophilic anti-inflammatory agent in plasma samples. At 24 hours after administration, clinical signs of inflammatory response was evaluated by gently pressing the finger over the injection area to determine edema and judged by visual inspection as edema or no edema in the different mice. The number of mice displaying visible signs of edema per group (each group having 5 mice) was summed to give an edema score of 0-5.

haptoglobin = assay: Quantification of haptoglobin in plasma; type: in vivo, mice; conditions: 24 h; for haptoglobin in plasma: s.c. 0.3 mg mRNA/kg
Protocol: as §1
Plasma concentrations of haptoglobin were measured by EMD Millipore's MILLIPLEX® MAP Mouse Acute Phase panel 2 kit (Merck KGaA, Darmstadt, Germany). The sample was first diluted 1:20 000 with Assay buffer then, together with standard's and QC's placed in a 96 well plate. A solution containing beads were then added. The beads were magnetic microspheres each of which was coated with a specific antibody. The mixture was incubated over night at 4° C. and the reaction mixture was then incubated with Streptavidin-PE conjungate to complete the reaction on the surface of each microsphere. The plate was read on analyzer Luminex® 100. Each individual microsphere was identified and the result of its bioassay quantified based on fluorescent reporter signals. The concentration was measured using Median Fluorescent Intensity (MFI) data using a 5-parameter logistic curve-fitting method.

IL-6 = assay: Quantification of cytokines/chemokines in plasma: IL-6; type: in vivo, mice; conditions: Example 10; pro-drug in L608 (Merck-32) LNPs, s.c. 0.3 mg mRNA/kg, 7 and 24 hours; vs. Sample S26
Protocol: (§2) Different groups of 5 mice (female, age˜12 weeks, Crl:Cd1(ICR), Charles River) were administered with PBS (negative control) or mRNA 1 formulated in lipid nanoparticles. Prior to administration, the mice were lightly anaesthetized with Isoflurane 5% and the injection area was shaved. The formulations were then injected subcutaneously (5 ml/kg or 0.3 mg mRNA/kg) in the intrascapular region to different groups of mice. Post-dose blood samples were collected and plasma was prepared by centrifugation. Aliquots of plasma were transferred into cryo tubes (0.5 ml U-shaped polypropylene cryotubes (Sarstedt Microtube with cap Ref #72.730) and stored frozen until quantification of haptoglobin, cytokines/chemokines and mRNA 1 protein concentrations. In some studies, quantification was also carried out of lipophilic anti-inflammatory agent in plasma samples. At 24 hours after administration, clinical signs of inflammatory response was evaluated by gently pressing the finger over the injection area to determine edema and judged by visual inspection as edema or no edema in the different mice. The number of mice displaying visible signs of edema per group (each group having 5 mice) was summed to give an edema score of 0-5. Plasma concentrations of murine cytokines/chemokines were measured by EMD Millipore's MILLIPLEX® MAP Mouse Cytokine magnetic bead kit (Merck KGaA, Darmstadt, Germany) for the simultaneous quantification of cytokines; IL-6, KC, MCP-1 and IP-10. The samples were first diluted 1:2 with Assay buffer then, together with standard's and QC's placed in a 96 well plate. A solution containing beads were added. The beads are magnetic microspheres each of which is coated with a specific antibody. The mixture was incubated over night at 4° C. and the reaction mixture was then incubated with Streptavidin-PE conjungate to complete the reaction on the surface of each microsphere. The plate was read on analyzer Luminex® 100. Each individual microsphere was identified and the result of its bioassay quantified based on fluorescent reporter signals. The concentration was measured using Median Fluorescent Intensity (MFI) data using a 5-parameter logistic curve-fitting method.

mRNA 1 protein = assay: Quantification of mRNA 1 protein in plasma; type: in vivo, mice; conditions: s.c. 0.3 mg mRNA/kg; for expression of mRNA 1 (plasma): Example 10, pro-drug in L608 (Merck-32) LNPs, vs. conventional LNPs (Sample S26); for protein expression (plasma mRNA 1 protein): Example 6, pro-drug in DLin-MC3-DMA LNPs, 0-24 h, vs. non-anti-inflammatory LNPs
Protocol: as §1
mRNA 1 protein was measured as a single analyte with the Milliplex Human Liver Protein Magnetic beads [Merck Millipore, Darmstadt, Germany]. The assay was performed using the Bioplex Multiplex Suspension Array System, Luminex 100TM] and Bioplex Manager 6.1 software curve fitting software [Bio-Rad Laboratories, Hercules, Calif.]. Briefly, the assay was performed according to a modified protocol based upon the manufacturers' instruction, with additional calibration points to extend the lower range of the standard curve. Sample data was back calculated from the standard curve (5PL curve fitting).

KC = assay: Quantification of cytokines/chemokines in plasma: KC; type: in vivo, mice; conditions: Example 10; pro-drug in L608 (Merck-32) LNPs, s.c. 0.3 mg mRNA/kg, 7 and 24 hours; vs. Sample S26
Protocol: as §2

[2] = Example 10, pro-drug in L608 (Merck-32) LNPs, s.c. 0.3 mg mRNA/kg, vs. conventional LNPs (Sample S26)
[3] = Example 10, pro-drug in L608 (Merck-32) LNPs, vs. conventional LNPs (Sample S26)
[4] = Example 6, pro-drug in DLin-MC3-DMA LNPs with mRNA 1, s.c. 0.3 mg mRNA/kg, vs. non-anti-inflammatory LNPs
[5] = Example 9, in both Acuitas-5 and KL10 based LNPs, s.c. 0.3 mg/kg, compared to LNPs based on DLin-MC3-DMA
[6] = Example 6, pro-drug in DLin-MC3-DMA LNPs, vs. non-anti-inflammatory LNPs
[7] = Example 7, in both DLin-MC3-DMA or Merck-32 based LNPs

| Structure (SMILES) | inflammation measured as edema scoring [1, 2] | haptoglobin in plasma (haptoglobin; [3]) | plasma IL-6 (IL-6) | expression of mRNA 1 (plasma) (mRNA 1 protein) | plasma KC (KC) | inflammation measured as edema scoring [1, 4] | inflammation measured as edema scoring [1, 5] | haptoglobin in plasma (haptoglobin; [6]) | plasma haptoglobin (haptoglobin; [5]) | protein expression (plasma mRNA 1 protein) (mRNA 1 protein) | mRNA 1 protein expression (mRNA 1 protein; Example 9, time interval 0-24 h, Acuitas-5 and KL10 LNPs with vs without rofleponide myristate) | inflammation measured as edema scoring ([1]; Example 7, in both DLin-MC3-DMA or Merck-32 based LNPs, s.c. 0.3 mg mRNA/kg, 24 h, vs same LNPs without) | haptoglobin in plasma (haptoglobin; [7]) | expression of mRNA 1 protein (mRNA 1 protein; [7]) |
| --- | --- | --- | --- | --- | --- | --- | --- | --- | --- | --- | --- | --- | --- | --- |
| CCCCCCCC/C=C\CCCCCCCC(=O)OCC(=O)[C@@]12OC(CCC)O[C@@H]1C[C@H]1[C@@H]3CCC4=CC(=O)C=C[C@]4(C)[C@H]3[C@@H](O)C[C@@]12C (stereo partly shown) [B-C18:1, budesonide oleate] | significantly reduce | significantly reduce | significantly reduce | increased and prolonged expression of mRNA 1 | significantly reduce | – | – | – | – | – | – | – | – | – |
| CCCCCCCCCCCCCC(=O)OCC(=O)C12OC(CCC)OC1CC1C3CC(F)C4=CC(=O)CCC4(C)C3(F)C(O)CC12C (stereo not shown) [R-C14, rofleponide myristate] | significantly reduce | significantly reduce | significantly reduce | increased and prolonged expression of mRNA 1 | significantly reduce | significantly reduced | reduced | significantly reduced | reduced | increased and prolonged protein expression | increased | – | – | – |
| CCCCC(=O)OCC(=O)[C@@]12O[C@H](CCC)O[C@@H]1C[C@H]1[C@@H]3C[C@H](F)C4=CC(=O)CC[C@]4(C)[C@@]3(F)[C@@H](O)C[C@@]12C [R-C5, rofleponide valerate] | – | – | – | – | – | not significantly influenced | – | not significantly influenced | – | did not produce a significantly increased total protein expression | – | – | – | – |
| CCCCCCCCCCCCCCCCCC(=O)OCC(=O)[C@@]12O[C@H](CCC)O[C@@H]1C[C@H]1[C@@H]3C[C@H](F)C4=CC(=O)CC[C@]4(C)[C@@]3(F)[C@@H](O)C[C@@]12C [R-C18, rofleponide stearate] | – | – | – | – | – | significantly reduced | – | significantly reduced | – | increased and prolonged protein expression | – | – | – | – |
| CCCCCCCCCCCCCCCC(=O)OCC(=O)[C@@]12OC(CCC)O[C@@H]1C[C@H]1[C@@H]3CCC4=CC(=O)C=C[C@]4(C)[C@H]3[C@@H](O)C[C@@]12C (stereo partly shown) [B-C16, budesonide palmitate] | significantly reduce | significantly reduce | significantly reduce | increased and prolonged expression of mRNA 1 | significantly reduce | – | – | – | – | – | – | – | – | – |
| CCCCCCCCCCCCCC(=O)OCC(=O)[C@@]12OC(CCC)O[C@@H]1C[C@H]1[C@@H]3CCC4=CC(=O)C=C[C@]4(C)[C@H]3[C@@H](O)C[C@@]12C (stereo partly shown) [B-C14, budesonide myristate] | not influenced to the same extent | not influenced to the same extent | not influenced to the same extent | – | not influenced to the same extent | – | – | – | – | – | – | – | – | – |
| CCCCCCCCCCCCCCCC(=O)OCC(=O)C12OC(CCC)OC1CC1C3CC(F)C4=CC(=O)CCC4(C)C3(F)C(O)CC12C (stereo not shown) [R-C16, rofleponide palmitate] | – | – | – | – | – | significantly reduced | – | significantly reduced | – | increased and prolonged protein expression | – | significantly reduced | significantly reduced | increased expression of mRNA 1 protein |
